# Data published in ChEMBL document CHEMBL1201862, “PubChem BioAssay data set” (2004).
#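 1) Cells in 96-well plates. 2) Compound, 48 h, 5 concentrations. 3) Linear interpolation between surrounding doses. 4) Unreached endpoint = highest concentration. At the GI50, growth is halved.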 Calls of active or inactive are those of the source. No stated cut-off is given here; in the data, active = GI50 up to about 1.1 µM and inactive = higher.
# Key:
# Experiment in all cases: NCI tumour cell line growth inhibition, 48 h
# [1] = tested on: SK-MEL-28
# [2] = tested on: MCF7
# [3] = tested on: EKVX
# [4] = tested on: SR
# [5] = tested on: NCI-H460
# [6] = tested on: SN12C
# [7] = tested on: SNB-19
# [8] = tested on: OVCAR-5
# [9] = tested on: IGROV-1
# [10] = tested on: NCI-H23
# [11] = tested on: CCRF-CEM
# [12] = tested on: T47D
# [13] = tested on: SK-MEL-2
# [14] = tested on: LOX IMVI
# [15] = tested on: DU-145
# [16] = tested on: NCI-H226
# [17] = tested on: MOLT-4
# [18] = tested on: ACHN
# [19] = tested on: NCI-H522
# [20] = tested on: SK-OV-3
# [21] = tested on: HCC 2998
# [22] = tested on: BT-549
# [23] = tested on: HOP-62
# [24] = tested on: OVCAR-8
# [25] = tested on: M14
# [26] = tested on: Hs-578T
# [27] = tested on: MDA-N
# [28] = tested on: UO-31
# [29] = tested on: SNB-75
# [30] = tested on: A549
# [31] = tested on: CAKI-1
# [32] = tested on: 786-0
# [33] = tested on: SF-295
# [34] = tested on: Malme-3M
# [35] = tested on: HT-29
# [36] = tested on: OVCAR-4
# [37] = tested on: UACC-257
# [38] = tested on: HCT-116
# [39] = tested on: HOP-92
# [40] = tested on: MDA-MB-231
# [41] = tested on: SF-268
# [42] = tested on: SW-620
# [43] = tested on: A498
# [44] = tested on: SK-MEL-5
# [45] = tested on: COLO 205
# [46] = tested on: SF-539
# [47] = tested on: RPMI-8226
# [48] = tested on: TK-10
# [49] = tested on: NCI/ADR-RES
# [50] = tested on: KM12
# [51] = tested on: U-251
# [52] = tested on: MDA-MB-435
# [53] = tested on: OVCAR-3
# [54] = tested on: HL-60
# [55] = tested on: UACC-62
# [56] = tested on: K562
# [57] = tested on: RXF 393
# [58] = tested on: PC-3
# [59] = tested on: HCT-15
structure (smiles),measurement,setting,value
C/C(=C/CO[Si](C)(C)C(C)(C)C)C(=O)N(C)c1ccccc1I,GI50,[1],17.9 µM (inactive)
same,GI50,[2],16.9 µM (inactive)
same,GI50,[3],15 µM (inactive)
same,GI50,[4],11.6 µM (inactive)
same,GI50,[5],14.7 µM (inactive)
same,GI50,[6],17.2 µM (inactive)
same,GI50,[7],16.6 µM (inactive)
same,GI50,[8],14.2 µM (inactive)
same,GI50,[9],16 µM (inactive)
same,GI50,[10],22 µM (inactive)
same,GI50,[11],15.2 µM (inactive)
same,GI50,[12],14.8 µM (inactive)
same,GI50,[13],15.7 µM (inactive)
same,GI50,[14],17.3 µM (inactive)
same,GI50,[15],18.2 µM (inactive)
same,GI50,[16],16.4 µM (inactive)
same,GI50,[17],18.2 µM (inactive)
same,GI50,[18],17.3 µM (inactive)
same,GI50,[19],15.6 µM (inactive)
same,GI50,[20],18 µM (inactive)
same,GI50,[21],14.3 µM (inactive)
same,GI50,[22],20.8 µM (inactive)
same,GI50,[23],18.4 µM (inactive)
same,GI50,[24],16.9 µM (inactive)
same,GI50,[25],15.2 µM (inactive)
same,GI50,[26],18.2 µM (inactive)
same,GI50,[27],17.7 µM (inactive)
same,GI50,[28],14.8 µM (inactive)
same,GI50,[29],19.1 µM (inactive)
same,GI50,[30],16.6 µM (inactive)
same,GI50,[31],15.6 µM (inactive)
same,GI50,[32],17.1 µM (inactive)
same,GI50,[33],16.5 µM (inactive)
same,GI50,[34],14.3 µM (inactive)
same,GI50,[35],10 µM (inactive)
same,GI50,[36],15.3 µM (inactive)
same,GI50,[37],13.3 µM (inactive)
same,GI50,[38],13 µM (inactive)
same,GI50,[39],10.5 µM (inactive)
same,GI50,[40],15.1 µM (inactive)
same,GI50,[41],17.5 µM (inactive)
same,GI50,[42],17.6 µM (inactive)
same,GI50,[43],17.3 µM (inactive)
same,GI50,[44],15.4 µM (inactive)
same,GI50,[45],18.5 µM (inactive)
same,GI50,[46],17.2 µM (inactive)
same,GI50,[47],19.4 µM (inactive)
same,GI50,[48],18.7 µM (inactive)
same,GI50,[49],17.4 µM (inactive)
same,GI50,[50],16.5 µM (inactive)
same,GI50,[51],15.3 µM (inactive)
same,GI50,[52],17.2 µM (inactive)
same,GI50,[53],15.9 µM (inactive)
same,GI50,[54],12.2 µM (inactive)
same,GI50,[55],14.8 µM (inactive)
same,GI50,[56],19.8 µM (inactive)
same,GI50,[57],16.6 µM (inactive)
same,GI50,[58],14.1 µM (inactive)
same,GI50,[59],18.6 µM
CSC(=S)OC1CC(n2cnc3c(NC(=O)c4ccccc4)ncnc32)OC1CO[Si](C)(C)C(C)(C)C (stereo unspecified),GI50,[1],33.3 µM (inactive)
same,GI50,[2],8.05 µM (inactive)
same,GI50,[3],25.1 µM (inactive)
same,GI50,[4],11 µM (inactive)
same,GI50,[5],11.1 µM (inactive)
same,GI50,[6],14.4 µM (inactive)
same,GI50,[7],36.7 µM (inactive)
same,GI50,[8],49.4 µM (inactive)
same,GI50,[9],27.2 µM (inactive)
same,GI50,[10],13.2 µM (inactive)
same,GI50,[11],3.5 µM (inactive)
same,GI50,[12],5 µM (inactive)
same,GI50,[13],16.2 µM (inactive)
same,GI50,[14],8.55 µM (inactive)
same,GI50,[15],26.9 µM (inactive)
same,GI50,[16],14.2 µM (inactive)
same,GI50,[17],2.03 µM (inactive)
same,GI50,[18],13.8 µM (inactive)
same,GI50,[19],7.18 µM (inactive)
same,GI50,[20],36.6 µM (inactive)
same,GI50,[21],9.02 µM (inactive)
same,GI50,[22],16.5 µM (inactive)
same,GI50,[23],28.6 µM (inactive)
same,GI50,[24],13.3 µM (inactive)
same,GI50,[25],13.9 µM (inactive)
same,GI50,[26],38.8 µM (inactive)
same,GI50,[27],7.87 µM (inactive)
same,GI50,[28],4.4 µM (inactive)
same,GI50,[29],34.1 µM (inactive)
same,GI50,[30],12.4 µM (inactive)
same,GI50,[31],> 46.5 µM (inactive)
same,GI50,[32],13.6 µM (inactive)
same,GI50,[33],9.82 µM (inactive)
same,GI50,[34],21.1 µM (inactive)
same,GI50,[35],9.18 µM (inactive)
same,GI50,[36],7.57 µM (inactive)
same,GI50,[37],14.7 µM (inactive)
same,GI50,[38],7.82 µM (inactive)
same,GI50,[39],13.9 µM (inactive)
same,GI50,[40],41.1 µM (inactive)
same,GI50,[41],30.7 µM (inactive)
same,GI50,[42],12.5 µM (inactive)
same,GI50,[43],19.1 µM (inactive)
same,GI50,[44],5.45 µM (inactive)
same,GI50,[45],5.85 µM (inactive)
same,GI50,[46],36.3 µM (inactive)
same,GI50,[47],16.3 µM (inactive)
same,GI50,[48],35.6 µM (inactive)
same,GI50,[49],9.02 µM (inactive)
same,GI50,[50],5.6 µM (inactive)
same,GI50,[51],7.41 µM (inactive)
same,GI50,[52],6.12 µM (inactive)
same,GI50,[53],11 µM (inactive)
same,GI50,[54],2.84 µM (inactive)
same,GI50,[55],14.1 µM (inactive)
same,GI50,[56],3.78 µM (inactive)
same,GI50,[57],4.35 µM (inactive)
same,GI50,[58],5.64 µM (inactive)
same,GI50,[59],13.2 µM
O=S(=O)(O)c1cc(/N=[N+](\[O-])c2cc(S(=O)(=O)O)c3ccccc3c2)cc2ccccc12,GI50,[1],> 100 µM (inactive)
same,GI50,[2],30.1 µM (inactive)
same,GI50,[3],39.4 µM (inactive)
same,GI50,[4],38.5 µM (inactive)
same,GI50,[5],> 100 µM (inactive)
same,GI50,[6],23.6 µM (inactive)
same,GI50,[7],46.7 µM (inactive)
same,GI50,[8],32.5 µM (inactive)
same,GI50,[9],33.9 µM (inactive)
same,GI50,[10],25.5 µM (inactive)
same,GI50,[11],29.7 µM (inactive)
same,GI50,[12],> 100 µM (inactive)
same,GI50,[13],24.7 µM (inactive)
same,GI50,[14],25.2 µM (inactive)
same,GI50,[15],19.5 µM (inactive)
same,GI50,[16],> 100 µM (inactive)
same,GI50,[18],> 100 µM (inactive)
same,GI50,[19],26.2 µM (inactive)
same,GI50,[20],> 100 µM (inactive)
same,GI50,[21],> 100 µM (inactive)
same,GI50,[22],19.5 µM (inactive)
same,GI50,[23],48 µM (inactive)
same,GI50,[24],> 100 µM (inactive)
same,GI50,[25],35.7 µM (inactive)
same,GI50,[26],33.5 µM (inactive)
same,GI50,[27],20 µM (inactive)
same,GI50,[28],20.9 µM (inactive)
same,GI50,[29],16.3 µM (inactive)
same,GI50,[30],> 100 µM (inactive)
same,GI50,[31],23.1 µM (inactive)
same,GI50,[32],> 100 µM (inactive)
same,GI50,[33],35.6 µM (inactive)
same,GI50,[34],45.5 µM (inactive)
same,GI50,[35],> 100 µM (inactive)
same,GI50,[36],20.5 µM (inactive)
same,GI50,[37],51.1 µM (inactive)
same,GI50,[38],> 100 µM (inactive)
same,GI50,[39],> 100 µM (inactive)
same,GI50,[40],> 100 µM (inactive)
same,GI50,[41],> 100 µM (inactive)
same,GI50,[42],31.8 µM (inactive)
same,GI50,[43],> 100 µM (inactive)
same,GI50,[44],17.9 µM (inactive)
same,GI50,[45],> 100 µM (inactive)
same,GI50,[46],16.8 µM (inactive)
same,GI50,[47],28.1 µM (inactive)
same,GI50,[48],> 100 µM (inactive)
same,GI50,[49],> 100 µM (inactive)
same,GI50,[50],> 100 µM (inactive)
same,GI50,[51],60.4 µM (inactive)
same,GI50,[52],> 100 µM (inactive)
same,GI50,[53],12.4 µM (inactive)
same,GI50,[54],30 µM (inactive)
same,GI50,[55],> 100 µM (inactive)
same,GI50,[56],30.7 µM (inactive)
same,GI50,[57],43.5 µM (inactive)
same,GI50,[58],> 100 µM (inactive)
same,GI50,[59],> 100 µM
